# Measurements reported in US20240116985A1, “STAPLED PEPTIDES AND METHODS THEREOF” (priority 2020, published 2024).
# Biological target: T1, full-length beta-Catenin (Uniprot ID P35222) (Homo sapiens, UniProt P35222)
# T1 construct: 10 nM full-length beta-Catenin (Uniprot ID P35222)
# T1 sequence (P35222 1-781): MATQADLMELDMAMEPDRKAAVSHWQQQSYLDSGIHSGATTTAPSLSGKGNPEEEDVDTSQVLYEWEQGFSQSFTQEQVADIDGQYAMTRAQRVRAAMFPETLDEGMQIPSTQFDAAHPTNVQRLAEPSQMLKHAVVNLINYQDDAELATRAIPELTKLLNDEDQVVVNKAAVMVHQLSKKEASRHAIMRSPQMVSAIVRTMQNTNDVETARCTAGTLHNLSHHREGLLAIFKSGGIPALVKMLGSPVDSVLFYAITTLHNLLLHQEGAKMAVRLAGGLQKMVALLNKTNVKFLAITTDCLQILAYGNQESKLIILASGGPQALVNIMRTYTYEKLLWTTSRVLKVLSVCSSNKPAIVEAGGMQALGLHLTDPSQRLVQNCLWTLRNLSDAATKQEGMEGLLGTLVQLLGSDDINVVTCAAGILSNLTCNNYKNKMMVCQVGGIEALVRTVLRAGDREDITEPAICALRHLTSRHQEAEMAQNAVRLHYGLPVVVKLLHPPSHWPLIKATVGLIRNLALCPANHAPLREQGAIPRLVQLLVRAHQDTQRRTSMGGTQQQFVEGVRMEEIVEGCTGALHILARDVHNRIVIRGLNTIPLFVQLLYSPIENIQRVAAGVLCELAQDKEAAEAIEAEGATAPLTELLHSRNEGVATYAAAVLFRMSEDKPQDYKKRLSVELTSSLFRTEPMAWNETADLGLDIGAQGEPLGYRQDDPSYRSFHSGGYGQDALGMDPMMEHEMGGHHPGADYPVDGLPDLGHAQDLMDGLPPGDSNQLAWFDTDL
# Test: Fluorescence polarization IC50 (beta-catenin / 5FAM-TCF4 10-53 competition)
# Assay type: binding
# Settings: fluorescence polarization; read-out: beta-Catenin FP IC50
row,Compound,IC50 [µM]
1,"CC(=O)N1CCC[C@H]1C(=O)N[C@@H](CC(=O)O)C(=O)N[C@@H](CC(C)(C)C)C(=O)N[C@]1(C)CCCCCCCCCOC(=O)N2CC[C@@](C(=O)N[C@@H](Cc3ccsc3)C(=O)N[C@@H](Cc3csc4ccccc34)C(=O)N[C@@H](CCC(N)=O)C(N)=O)(C2)NC(=O)[C@H](CC(C)C)NC(=O)[C@H](Cc2ccccc2)NC(=O)[C@H](C)NC(=O)[C@H](C)NC(=O)[C@H](CC(=O)O)NC(=O)[C@H](CC(=O)O)NC1=O [I-1991, Ac-Pro-Asp-Npg-R6-Asp-Asp-Ala-Ala-Phe-Leu-PyrS2-3Thi-BztA-Gln-NH2]",0.397
2,"CC(=O)N1CCC[C@H]1C(=O)N[C@@H](CC(=O)O)C(=O)N[C@@H](CC(C)(C)C)C(=O)N[C@]1(C)CCCCCCCOC(=O)N2CC[C@@](C(=O)N[C@@H](Cc3ccsc3)C(=O)N[C@@H](Cc3csc4ccccc34)C(=O)N[C@@H](CCC(N)=O)C(N)=O)(C2)NC(=O)[C@H](CC(C)C)NC(=O)[C@H](Cc2ccccc2)NC(=O)[C@H](C)NC(=O)[C@H](C)NC(=O)[C@H](CC(=O)O)NC(=O)[C@H](CC(=O)O)NC1=O [I-1992, Ac-Pro-Asp-Npg-R4-Asp-Asp-Ala-Ala-Phe-Leu-PyrS2-3Thi-BztA-Gln-NH2]",0.536
3,"CC(=O)N1CCC[C@H]1C(=O)N[C@@H](CC(=O)O)C(=O)N[C@@H](CC(C)(C)C)C(=O)N[C@]1(C)CCCCCCOC(=O)N2CC[C@@](C(=O)N[C@@H](Cc3ccsc3)C(=O)N[C@@H](Cc3csc4ccccc34)C(=O)N[C@@H](CCC(N)=O)C(N)=O)(C2)NC(=O)[C@H](CC(C)C)NC(=O)[C@H](Cc2ccccc2)NC(=O)[C@H](C)NC(=O)[C@H](C)NC(=O)[C@H](CC(=O)O)NC(=O)[C@H](CC(=O)O)NC1=O [I-1993, Ac-Pro-Asp-Npg-R3-Asp-Asp-Ala-Ala-Phe-Leu-PyrS2-3Thi-BztA-Gln-NH2]",0.728
4,"CC(=O)N1CCC[C@]12CC=CCCCC1(CCCC=CCCCOC(=O)N3CC[C@@](C(=O)N[C@@H](Cc4cccc(C(F)(F)F)c4)C(=O)N[C@@H](Cc4csc5ccccc45)C(=O)N[C@@H](CCC(N)=O)C(N)=O)(C3)NC(=O)[C@H](CC(N)=O)NC(=O)[C@H](Cc3ccccc3)NC(=O)[C@H](C)NC(=O)[C@H](C)NC(=O)[C@H]([C@@H](C)O)NC(=O)[C@H](CC(N)=O)NC1=O)NC(=O)[C@H](CC(C)(C)C)NC(=O)[C@H](CC(=O)O)NC2=O (stereo partly drawn) [I-1997, Ac-PL3-Asp-Npg-B5-Asn-Thr-Ala-Ala-Phe-Asn-PyrS2-3F3MeF-BztA-Gln-NH2]",3.39
5,"CC(=O)N1CCC[C@]12CC=CCCCC1(CCCC=CCCCOC(=O)N3CC[C@@](C(=O)N[C@@H](Cc4ccccc4Cl)C(=O)N[C@@H](Cc4csc5ccccc45)C(=O)N[C@@H](CCC(N)=O)C(N)=O)(C3)NC(=O)[C@H](CC(N)=O)NC(=O)[C@H](Cc3ccccc3)NC(=O)[C@H](C)NC(=O)[C@H](C)NC(=O)[C@H]([C@@H](C)O)NC(=O)[C@H](CC(N)=O)NC1=O)NC(=O)[C@H](CC(C)(C)C)NC(=O)[C@H](CC(=O)O)NC2=O (stereo partly drawn) [I-1998, Ac-PL3-Asp-Npg-B5-Asn-Thr-Ala-Ala-Phe-Asn-PyrS2-2C1F-BztA-Gln-NH2]",0.732
6,"CC(=O)N1CCC[C@]12CC=CCCCC1(CCCC=CCCCOC(=O)N3CC[C@@](C(=O)N[C@@H](Cc4ccccc4Cl)C(=O)N[C@@H](Cc4csc5ccccc45)C(=O)N[C@@H](CCC(N)=O)C(N)=O)(C3)NC(=O)[C@H](CC(N)=O)NC(=O)[C@H](Cc3ccccc3)NC(=O)[C@H](C)NC(=O)[C@H](C)NC(=O)[C@H]([C@@H](C)O)NC(=O)[C@H](CC(N)=O)NC1=O)NC(=O)[C@H](CC(C)(C)C)NC(=O)[C@H](CC(=O)O)NC2=O (stereo partly drawn) [I-1999, Ac-PL3-Asp-Npg-B5-Asn-Thr-Ala-Ala-Phe-Asn-PyrS2-2C1F-BztA-Gln-NH2]",4.94
7,"CC(=O)N1CCC[C@]12CC=CCCCC1(CCCC=CCCCOC(=O)N3CC[C@@](C(=O)N[C@@H](Cc4cccc(Cl)c4)C(=O)N[C@@H](Cc4csc5ccccc45)C(=O)N[C@@H](CCC(N)=O)C(N)=O)(C3)NC(=O)[C@H](CC(N)=O)NC(=O)[C@H](Cc3ccccc3)NC(=O)[C@H](C)NC(=O)[C@H](C)NC(=O)[C@H]([C@@H](C)O)NC(=O)[C@H](CC(N)=O)NC1=O)NC(=O)[C@H](CC(C)(C)C)NC(=O)[C@H](CC(=O)O)NC2=O (stereo partly drawn) [I-2000, Ac-PL3-Asp-Npg-B5-Asn-Thr-Ala-Ala-Phe-Asn-PyrS2-3C1F-BztA-Gln-NH2]",6.56
8,"CC(=O)N1CCC[C@]12CC=CCCCC1(CCCC=CCCCOC(=O)N3CC[C@@](C(=O)N[C@@H](Cc4cccc(Cl)c4)C(=O)N[C@@H](Cc4csc5ccccc45)C(=O)N[C@@H](CCC(N)=O)C(N)=O)(C3)NC(=O)[C@H](CC(N)=O)NC(=O)[C@H](Cc3ccccc3)NC(=O)[C@H](C)NC(=O)[C@H](C)NC(=O)[C@H]([C@@H](C)O)NC(=O)[C@H](CC(N)=O)NC1=O)NC(=O)[C@H](CC(C)(C)C)NC(=O)[C@H](CC(=O)O)NC2=O (stereo partly drawn) [I-2001, Ac-PL3-Asp-Npg-B5-Asn-Thr-Ala-Ala-Phe-Asn-PyrS2-3C1F-BztA-Gln-NH2]",4.45
9,"CC(=O)N1CCC[C@]12CC=CCCCC1(CCCC=CCCCOC(=O)N3CC[C@@](C(=O)N[C@@H](Cc4ccsc4)C(=O)N[C@@H](Cc4csc5ccccc45)C(=O)N[C@@H](CCC(N)=O)C(N)=O)(C3)NC(=O)[C@H](CC(N)=O)NC(=O)[C@H](Cc3ccccc3)NC(=O)[C@H](C)NC(=O)[C@H](C)NC(=O)[C@H]([C@@H](C)O)NC(=O)[C@H](CC(N)=O)NC1=O)NC(=O)[C@H](C)NC(=O)[C@H](CC(=O)O)NC2=O (stereo partly drawn) [I-2002, Ac-PL3-Asp-Ala-B5-Asn-Thr-Ala-Ala-Phe-Asn-PyrS2-3Thi-BztA-Gln-NH2]",0.612
10,"CC(=O)N1CCC[C@]12CC=CCCCC1(CCCC=CCCCOC(=O)N3CC[C@@](C(=O)N[C@@H](Cc4ccsc4)C(=O)N[C@@H](Cc4csc5ccccc45)C(=O)N[C@@H](CCC(N)=O)C(N)=O)(C3)NC(=O)[C@H](CC(N)=O)NC(=O)[C@H](Cc3ccccc3)NC(=O)[C@H](C)NC(=O)[C@H](C)NC(=O)[C@H]([C@@H](C)O)NC(=O)[C@H](CC(N)=O)NC1=O)NC(=O)[C@H](C)NC(=O)[C@H](CC(=O)O)NC2=O (stereo partly drawn) [I-2003, Ac-PL3-Asp-Ala-B5-Asn-Thr-Ala-Ala-Phe-Asn-PyrS2-3Thi-BztA-Gln-NH2]",1.02
11,"CC(=O)N1CCC[C@]12CC=CCCCC1(CCCC=CCCCOC(=O)N3CC[C@@](C(=O)N[C@@H](Cc4ccsc4)C(=O)N[C@@H](Cc4csc5ccccc45)C(=O)N[C@@H](CCC(N)=O)C(N)=O)(C3)NC(=O)[C@H](CC(N)=O)NC(=O)[C@H](Cc3ccccc3)NC(=O)[C@H](C)NC(=O)[C@H](CCCCNC(C)C)NC(=O)[C@H]([C@@H](C)O)NC(=O)[C@H](CC(N)=O)NC1=O)NC(=O)[C@H](CC(C)(C)C)NC(=O)[C@H](CC(=O)O)NC2=O (stereo partly drawn) [I-2004, Ac-PL3-Asp-Npg-B5-Asn-Thr-iPrLys-Ala-Phe-Asn-PyrS2-3Thi-BztA-Gln-NH2]",0.227
12,"CC(=O)N1CCC[C@]12CC=CCCCC1(CCCC=CCCCOC(=O)N3CC[C@@](C(=O)N[C@@H](Cc4ccsc4)C(=O)N[C@@H](Cc4csc5ccccc45)C(=O)N[C@@H](CCC(N)=O)C(N)=O)(C3)NC(=O)[C@H](CC(N)=O)NC(=O)[C@H](Cc3ccccc3)NC(=O)[C@H](C)NC(=O)[C@H](CCCCNC(C)C)NC(=O)[C@H]([C@@H](C)O)NC(=O)[C@H](CC(N)=O)NC1=O)NC(=O)[C@H](CC(C)(C)C)NC(=O)[C@H](CC(=O)O)NC2=O (stereo partly drawn) [I-2005, Ac-PL3-Asp-Npg-B5-Asn-Thr-iPrLys-Ala-Phe-Asn-PyrS2-3Thi-BztA-Gln-NH2]",0.357
13,"CC(=O)N1CCC[C@]12CC=CCCCC1(CCCC=CCCCOC(=O)N3CC[C@@](C(=O)N[C@@H](Cc4ccsc4)C(=O)N[C@@H](Cc4csc5ccccc45)C(=O)N[C@@H](CCC(N)=O)C(N)=O)(C3)NC(=O)[C@H](CC(N)=O)NC(=O)[C@H](Cc3ccccc3)NC(=O)[C@H](CCCCNC(C)C)NC(=O)[C@H](C)NC(=O)[C@H]([C@@H](C)O)NC(=O)[C@H](CC(N)=O)NC1=O)NC(=O)[C@H](CC(C)(C)C)NC(=O)[C@H](CC(=O)O)NC2=O (stereo partly drawn) [I-2006, Ac-PL3-Asp-Npg-B5-Asn-Thr-Ala-iPrLys-Phe-Asn-PyrS2-3Thi-BztA-Gln-NH2]",0.285
14,"CC(=O)N1CCC[C@]12CC=CCCCC1(CCCC=CCCCOC(=O)N3CC[C@@](C(=O)N[C@@H](Cc4ccsc4)C(=O)N[C@@H](Cc4csc5ccccc45)C(=O)N[C@@H](CCC(N)=O)C(N)=O)(C3)NC(=O)[C@H](CC(N)=O)NC(=O)[C@H](CCc3ccccc3)NC(=O)[C@H](C)NC(=O)[C@H](C)NC(=O)[C@H]([C@@H](C)O)NC(=O)[C@H](CC(N)=O)NC1=O)NC(=O)[C@H](CC(C)(C)C)NC(=O)[C@H](CC(=O)O)NC2=O (stereo partly drawn) [I-2008, Ac-PL3-Asp-Npg-B5-Asn-Thr-Ala-Ala-hPhe-Asn-PyrS2-3Thi-BztA-Gln-NH2]",8.83
15,"CC(=O)N1CCC[C@]12CC=CCCCC1(CCCC=CCCCOC(=O)N3CC[C@@](C(=O)N[C@@H](Cc4ccsc4)C(=O)N[C@@H](Cc4csc5ccccc45)C(=O)N[C@@H](CCC(N)=O)C(N)=O)(C3)NC(=O)[C@H](CC(N)=O)NC(=O)[C@H](Cc3cccc(C(F)(F)F)c3)NC(=O)[C@H](C)NC(=O)[C@H](C)NC(=O)[C@H]([C@@H](C)O)NC(=O)[C@H](CC(N)=O)NC1=O)NC(=O)[C@H](CC(C)(C)C)NC(=O)[C@H](CC(=O)O)NC2=O (stereo partly drawn) [I-2009, Ac-PL3-Asp-Npg-B5-Asn-Thr-Ala-Ala-3F3MeF-Asn-PyrS2-3Thi-BztA-Gln-NH2]",1.48
